Data taken from PMC12070228, “Investigations of Enteric-Coated Tablet Propyl Gallate-Induced Nephrotoxicity in Beagles as well as Human and Dog Renal Proximal Tubule Epithelial Cells” (ACS Pharmacology & Translational Science, 2025).

Columns and labels:
[1] = tested on: human RPTECs; assay: GSH-Glo glutathione assay; format: cell-based
Description: (§1) Frozen RPTECs vials were removed from liquid nitrogen storage and placed in a 37 °C water bath until the contents were completely thawed. The cells were gently resuspended and dispensed into a cell culture flask at a seeding density of ∼7500 cells/cm^2. The flask was placed in a 37 °C, 5% CO2 incubator. Cell cultures were given fresh medium the following morning and then every other day until the cell culture was approximately 90% confluent. When the cell culture was 90% confluent, medium was removed and the cells were rinsed with warmed PBS. Cells were harvested and split into new flasks based on a cell density of 7500 cells/cm^2. Cells were incubated at 37 °C for 3 days, with fresh medium added each day. Cells were harvested and diluted with growth medium to a density of 200,000 cells/mL. 100 μL of cell suspension per well (20,000 cells/well) was added to a clear-bottom 96-well microplate for luminescence assays. The plated cells were incubated in the 37 °C incubator for 3 days.
(§2) Each test compound (PG, GA, 4OMPG and 4OMGA) was initially reconstituted using DMSO at a concentration of 250 mg/mL. Serial dilutions of each compound were performed to reach concentrations of 4000 μM, 2000 μM, 1000 μM, 500 μM, 250 μM, 125 μM, 62.5 μM, 31.3 μM using warmed fresh supplemented medium with 0.4% (v/v) DMSO for all concentration levels. 100 μL of media containing the compound solution was added to the cells. Final concentrations of the compounds were 2000 μM, 1000 μM, 500 μM, 250 μM, 125 μM, 62.5 μM, 31.3 μM, 15.7 μM. AZ13599185 (tubulysin, 100 or 500 ng/mL) or cisplatin (30 μg/mL) and buthionine sulfoximine (BSO, 200 μM) were used as positive controls for CTG and GSH assays, respectively. 0.2% (v/v) DMSO in medium was used as the control for both assays, corrsponding to the final cocnetration of DMSO in the well. Three replicates for each compound at each concentration were prepared. Six replicates of positive or negative controls were prepared. Cells were incubated at 37 °C for approximately 48 h.
(§3) Cell media were removed and cells were washed twice with 200 μL of PBS buffer per well. CTG and GSH assay reagents were added to the wells and the assays were performed following the protocols of the Promega assay kits. Briefly, to perform the CTG assay, 100 μL of CTG solution was added into each well. The plate was gently shaken and incubated in the dark for 30 min and luminescence was measured using a PerkinElmer VICTOR X3 plate reader. To perform the GSH assay, luciferin-NT substrate and glutathione S-transferase were mixed into the GSH-GLo solution. 100 μL of the mixed solution was added into each well. The plate was gently shaken and incubated in the dark for at least 30 min. 100 μL of Luciferin Detection Reagent was added per well. The plate was gently shaken and incubated in the dark for at least 15 min. Luminescence was measured using a PerkinElmer VICTOR X3 plate reader.
(§4) For cell-based assays, data was normalized to the negative control. Cell viability and GSH level were expressed as Cell viability or GSH level=Luminescence(each well)/Luminescence(average of DMSO negative control)

[2] = tested on: dog RPTECs; assay: GSH-Glo glutathione assay; format: cell-based
Description: as §1, §2, §3, §4

[3] = PG pharmacokinetics in healthy volunteers, clinical study NCT03362593 (validated LC-MS/MS); format: in vivo; conditions: human, plasma, oral EC MEDI7219 tablets, PG 200, 400 or 800 mg
Description: The total run time was 5.5 min.
The targeted quantitation of PG and phase-I/II metabolites was conducted using peak area ratio of analytes and internal standards in MultiQuant software (SCIEX).
Healthy volunteers participating in the clinical study NCT03362593 received single or multiple ascending doses of MEDI7219 tablets. Healthy volunteers received EC MEDI7219 tablets containing 200, 400, or 800 mg PG per tablet. The clinical plasma samples were analyzed using the validated method described above. […] After oral administration of tablets containing PG, the T max of PG was reached around 3–4 h postdose.

[4] = no reference given; cited from earlier work
[5] = Exposure comparison of PG and phase-I and phase-II metabolites in dog and human plasma; conditions: oral EC MEDI7219 tablets; samples through 8 h; human PG 800 mg (N = 8), dog PG 200 mg/kg/day (N = 6)
Description: Dog blood was collected via jugular vein in potassium (K2) EDTA tubes and processed to plasma. Samples were centrifuged at approximately 3000 rpm for 5 min at approximately 4 °C within 30 min of collection. Plasma samples were acidified with 1% (v/v) formic acid (FA) to avoid degradation of PG and metabolites in plasma within 20 min of the start of centrifugation and then stored frozen (≤-60 °C). Acidified plasma was extracted using internal standard-spiked solution (100 mM ammonium bicarbonate: acetonitrile = 1:4). Samples were then centrifuged to collect supernatant, followed by drying to completion. The dried samples were reconstituted with 200 uL of 0.1% (v/v) formic acid in water. Samples were vortexed and centrifuged before injection. In order to assess potential impact of hemolysis on qualification of PG and its metabolites, hemolyzed plasma was prepared by spiking fully hemolyzed whole blood at an indicated percentage into plasma.
Separations were conducted on a reversed-phase column (Phenomenex, Kinetex F5, 2.6 μm 100 Å, 100 × 4.6 mm) at a flow rate of 0.7 mL/min at 40 °C. Mobile phase A was 0.1% formic acid in water and mobile phase B was 0.1% formic acid in methanol. The samples were analyzed on a SCIEX 6500+ QTRAP under negative ESI mode. The total run time was 5.5 min. Eight calibration standards and three quality control (LQC, MQC and HQC) samples were used for quantification.
The primary metabolites of PG were measured in dog and human plasma following oral administration of EC MEDI7219 tablets to examine a potential mechanism of the PG-mediated renal toxicity in dog and its possible translatability to humans. Plasma concentrations of PG, its phase-I metabolites GA and 4OMGA and phase-II glucuronide and glutathione conjugates were measured. The human and dog samples, collected through 8 h after administration, were analyzed and the results were compared (Figure , Figure S5). Based on allometric scaling method the highest daily dose administered in humans was approximately 8-fold less compared with the dose level tested in dogs.
Human (H) data is in black. Dog (D) data is in red (study 002). Concentration (mM) is in log10 scale. Data was normalized to PG dose (mg/kg/day). N = 8 for human (PG dosed at 800 mg with MEDI7219 tablets). N = 6 for dogs (PG dosed at 200 mg/kg/day). Below LLOQ values were set to 1/2 LLOQ for the calculation.

[6] = tested on: beagles; assay: Follow-up 4-week study 003: EC tablets vs PG alone in gelatin capsule, nephrotoxicity; format: in vivo, beagle dog; conditions: dogs, target PG 200 mg/kg/day once daily for 26 days, data not shown
[7] = tested on: human RPTECs; assay: Cell Titer Glo cell viability assay; format: cell-based; conditions: RPTEC, 48 h exposure, estimated
Description: as §1
(§5) Each test compound (PG, GA, 4OMPG and 4OMGA) was initially reconstituted using DMSO at a concentration of 250 mg/mL. Serial dilutions of each compound were performed to reach concentrations of 4000 μM, 2000 μM, 1000 μM, 500 μM, 250 μM, 125 μM, 62.5 μM, 31.3 μM using warmed fresh supplemented medium with 0.4% (v/v) DMSO for all concentration levels. 100 μL of media containing the compound solution was added to the cells. Final concentrations of the compounds were 2000 μM, 1000 μM, 500 μM, 250 μM, 125 μM, 62.5 μM, 31.3 μM, 15.7 μM. […]
(§6) Cell media were removed and cells were washed twice with 200 μL of PBS buffer per well. […] The plate was gently shaken and incubated in the dark for 30 min and luminescence was measured using a PerkinElmer VICTOR X3 plate reader. […] Luminescence was measured using a PerkinElmer VICTOR X3 plate reader.
as §4

[8] = tested on: dog RPTECs; assay: Cell Titer Glo cell viability assay; format: cell-based
Description: as §1, §5, §6, §4

[9] = ~48 h exposure, normalized to DMSO control

For CCCOC(=O)c1cc(O)c(O)c(O)c1 [PG, propyl gallate], the “GSH levels at high concentrations” value ([1]; ~48 h, high concentrations) was “reduction of GSH levels”, the “Glutathione (GSH) levels” value [1, 9] was “induced” and the “GSH levels at high concentrations” value ([2]; ~48 h, high concentrations) was “reduction of GSH levels”. For the same compound, the “Glutathione (GSH) levels” value [2, 9] was “not in dog cells”, the Tmax [3] was 3 to 4 h and the “Log P” value [4] was 2.13. For the same compound, the “Plasma exposure, humans compared with dogs” value [5] was “comparable between the two species”, the “Nephrotoxicity / kidney injury” value [6] was “did not result in nephrotoxicity” and the EC50 [7] was about 1.53 mM. The EC50 ([8]; Canis lupus familiaris, RPTEC, dog RPTECs, 48 h exposure, estimated) was about 46.5 µM and the “Relative difference in sensitivity between human and dog RPTECs” value ([8]; human EC50 vs dog EC50, cell viability) was about 33 fold.
